Measured values: PubChem BioAssay (NCI)
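In this assay, cells in 96-well plates receive the compound at five concentrations for 48 hours. Endpoints are linearly interpolated between the surrounding concentrations. TGI marks complete inhibition of growth.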

How the values were obtained:
Experiment in all cases: NCI tumour cell line growth inhibition, 48 h
786-0 renal = test system: 786-0 renal
A498 renal = test system: A498 renal
A549 NSCLC = test system: A549 NSCLC
ACHN renal = test system: ACHN renal
CAKI-1 renal = test system: CAKI-1 renal
COLO 205 colon = test system: COLO 205 colon
DLD-1 colon = test system: DLD-1 colon
DMS 114 small cell lung = test system: DMS 114 small cell lung
DMS 273 small cell lung = test system: DMS 273 small cell lung
EKVX NSCLC = test system: EKVX NSCLC
HCC-2998 colon = test system: HCC-2998 colon
HCT-116 colon = test system: HCT-116 colon
HCT-15 colon = test system: HCT-15 colon
HOP-18 NSCLC = test system: HOP-18 NSCLC
HOP-62 NSCLC = test system: HOP-62 NSCLC
HOP-92 NSCLC = test system: HOP-92 NSCLC
HT29 colon = test system: HT29 colon
IGROV1 ovarian = test system: IGROV1 ovarian
KM12 colon = test system: KM12 colon
KM20L2 colon = test system: KM20L2 colon
LOX IMVI melanoma = test system: LOX IMVI melanoma
LXFL 529 NSCLC = test system: LXFL 529 NSCLC
M14 melanoma = test system: M14 melanoma
M19-MEL melanoma = test system: M19-MEL melanoma
MALME-3M melanoma = test system: MALME-3M melanoma
MOLT-4 leukemia = test system: MOLT-4 leukemia
NCI-H226 lung = test system: NCI-H226 lung
NCI-H23 lung = test system: NCI-H23 lung
NCI-H460 lung = test system: NCI-H460 lung
NCI-H522 lung = test system: NCI-H522 lung
OVCAR-3 ovarian = test system: OVCAR-3 ovarian
OVCAR-4 ovarian = test system: OVCAR-4 ovarian
OVCAR-5 ovarian = test system: OVCAR-5 ovarian
OVCAR-8 ovarian = test system: OVCAR-8 ovarian
RPMI-8226 leukemia = test system: RPMI-8226 leukemia
RXF 393 renal = test system: RXF 393 renal
SF-268 CNS = test system: SF-268 CNS
SF-295 CNS = test system: SF-295 CNS
SF-539 CNS = test system: SF-539 CNS
SK-MEL-2 melanoma = test system: SK-MEL-2 melanoma
SK-MEL-28 melanoma = test system: SK-MEL-28 melanoma
SK-MEL-5 melanoma = test system: SK-MEL-5 melanoma
SK-OV-3 ovarian = test system: SK-OV-3 ovarian
SN12C renal = test system: SN12C renal
SNB-19 CNS = test system: SNB-19 CNS
SNB-75 CNS = test system: SNB-75 CNS
SNB-78 CNS = test system: SNB-78 CNS
SR leukemia = test system: SR leukemia
SW-620 colon = test system: SW-620 colon
TK-10 renal = test system: TK-10 renal
U251 CNS = test system: U251 CNS
UACC-257 melanoma = test system: UACC-257 melanoma
UACC-62 melanoma = test system: UACC-62 melanoma
UO-31 renal = test system: UO-31 renal
XF 498 CNS = test system: XF 498 CNS
K-562 leukemia = test system: K-562 leukemia

CSC1N=CNc2c1sc(=S)n2-c1ccccc1 (stereo not drawn)
TGI (786-0 renal): > 100 µM
TGI (A498 renal): > 100 µM
TGI (A549 NSCLC): > 100 µM
TGI (ACHN renal): > 100 µM
TGI (CAKI-1 renal): > 100 µM
TGI (COLO 205 colon): > 100 µM
TGI (DLD-1 colon): > 100 µM
TGI (DMS 114 small cell lung): > 100 µM
TGI (DMS 273 small cell lung): > 100 µM
TGI (EKVX NSCLC): > 100 µM
TGI (HCC-2998 colon): > 100 µM
TGI (HCT-116 colon): > 100 µM
TGI (HCT-15 colon): > 100 µM
TGI (HOP-18 NSCLC): > 100 µM
TGI (HOP-62 NSCLC): 74.4 µM
TGI (HOP-92 NSCLC): > 100 µM
TGI (HT29 colon): > 100 µM
TGI (IGROV1 ovarian): > 100 µM
TGI (KM12 colon): > 100 µM
TGI (KM20L2 colon): > 100 µM
TGI (LOX IMVI melanoma): > 100 µM
TGI (LXFL 529 NSCLC): > 100 µM
TGI (M14 melanoma): > 100 µM
TGI (M19-MEL melanoma): > 100 µM
TGI (MALME-3M melanoma): > 100 µM
TGI (MOLT-4 leukemia): > 100 µM
TGI (NCI-H226 lung): > 100 µM
TGI (NCI-H23 lung): > 100 µM
TGI (NCI-H460 lung): > 100 µM
TGI (NCI-H522 lung): > 100 µM
TGI (OVCAR-3 ovarian): > 100 µM
TGI (OVCAR-4 ovarian): > 100 µM
TGI (OVCAR-5 ovarian): > 100 µM
TGI (OVCAR-8 ovarian): > 100 µM
TGI (RPMI-8226 leukemia): > 100 µM
TGI (RXF 393 renal): > 100 µM
TGI (SF-268 CNS): > 100 µM
TGI (SF-295 CNS): > 100 µM
TGI (SF-539 CNS): > 100 µM
TGI (SK-MEL-2 melanoma): > 100 µM
TGI (SK-MEL-28 melanoma): > 100 µM
TGI (SK-MEL-5 melanoma): > 100 µM
TGI (SK-OV-3 ovarian): > 100 µM
TGI (SN12C renal): > 100 µM
TGI (SNB-19 CNS): > 100 µM
TGI (SNB-75 CNS): 84.7 µM
TGI (SNB-78 CNS): > 100 µM
TGI (SR leukemia): > 100 µM
TGI (SW-620 colon): > 100 µM
TGI (TK-10 renal): > 100 µM
TGI (U251 CNS): > 100 µM
TGI (UACC-257 melanoma): > 100 µM
TGI (UACC-62 melanoma): > 100 µM
TGI (UO-31 renal): > 100 µM
TGI (XF 498 CNS): > 100 µM

CCOC(=O)[C@H]1Nc2ccc(Cl)cc2[C@H]2CCC[C@@H]12
TGI (786-0 renal): > 100 µM
TGI (A549 NSCLC): > 100 µM
TGI (ACHN renal): > 100 µM
TGI (CAKI-1 renal): > 100 µM
TGI (COLO 205 colon): > 100 µM
TGI (DLD-1 colon): > 100 µM
TGI (DMS 114 small cell lung): > 100 µM
TGI (DMS 273 small cell lung): > 100 µM
TGI (EKVX NSCLC): > 100 µM
TGI (HCC-2998 colon): > 100 µM
TGI (HCT-116 colon): > 100 µM
TGI (HCT-15 colon): > 100 µM
TGI (HOP-18 NSCLC): > 100 µM
TGI (HOP-62 NSCLC): > 100 µM
TGI (HT29 colon): > 100 µM
TGI (IGROV1 ovarian): > 100 µM
TGI (K-562 leukemia): > 100 µM
TGI (KM12 colon): > 100 µM
TGI (KM20L2 colon): > 100 µM
TGI (LOX IMVI melanoma): > 100 µM
TGI (LXFL 529 NSCLC): > 100 µM
TGI (M14 melanoma): > 100 µM
TGI (M19-MEL melanoma): > 100 µM
TGI (MALME-3M melanoma): > 100 µM
TGI (MOLT-4 leukemia): > 100 µM
TGI (NCI-H226 lung): > 100 µM
TGI (NCI-H23 lung): > 100 µM
TGI (NCI-H460 lung): > 100 µM
TGI (NCI-H522 lung): > 100 µM
TGI (OVCAR-3 ovarian): > 100 µM
TGI (OVCAR-4 ovarian): > 100 µM
TGI (OVCAR-5 ovarian): > 100 µM
TGI (OVCAR-8 ovarian): > 100 µM
TGI (RPMI-8226 leukemia): > 100 µM
TGI (RXF 393 renal): 64.4 µM
TGI (SF-268 CNS): > 100 µM
TGI (SF-295 CNS): > 100 µM
TGI (SF-539 CNS): > 100 µM
TGI (SK-MEL-2 melanoma): > 100 µM
TGI (SK-MEL-28 melanoma): > 100 µM
TGI (SK-MEL-5 melanoma): > 100 µM
TGI (SN12C renal): > 100 µM
TGI (SNB-19 CNS): > 100 µM
TGI (SNB-75 CNS): > 100 µM
TGI (SNB-78 CNS): > 100 µM
TGI (SR leukemia): > 100 µM
TGI (SW-620 colon): > 100 µM
TGI (TK-10 renal): > 100 µM
TGI (U251 CNS): > 100 µM
TGI (UACC-257 melanoma): 62.2 µM
TGI (UACC-62 melanoma): > 100 µM
TGI (UO-31 renal): > 100 µM
TGI (XF 498 CNS): > 100 µM
